# Patent publication US6562830B1, “Method of treating a patient having precancerous lesions with phenyl quinazolinone derivatives” (Cell Pathways, Inc., priority 1999, dated 2003)
row,melting point [°C],SMILES
1,185,"CCCOc1ccccc1-c1nc2cc(N)ccc2c(=O)[nH]1 [Example 26, 7-Amino-2-(2-Propoxyphenyl)-4(3H)-quinazolinone]"
2,204 to 205,"CCCOc1ccccc1-c1nc2cc(NC)ccc2c(=O)[nH]1 [Example 27, 7-Methylamino-2-(2-Propoxyphenyl)-4(3H)-quinazolinone]"
